In PubChem BioAssay AID302 (DTP/NCI, 2004):
Values joined by “and” are separate entries in the source; they are usually repeats but may differ in a detail not shown here. Equal entries are not always repeated. Inconclusive results and toxic doses are left out. The calls were made as follows: active = survival T/C of 150% or more; inactive = T/C below 125% in these data. Starred links: 1 amine or outer side, 2 acyl side, 3 side chain; linkers in the order of their positions; H or OH if unused. Positions of bridges follow the written chain, without caps; N, C: chain ends. Non-standard residues stand in square brackets, D forms with d. Residues, ends and D or L forms follow the SMILES beside them. Chains are numbered I, II in the order given. Actinocin(9to1) = Cc1c2oc3c(C)ccc(C(=O)[*:1])c3nc-2c(C(=O)[*:2])c(N)c1=O; NMeV = CN[CH](C(=O)O)C(C)C; Sar = CNCC(=O)O

System: BALB/c mice, Madison 109 lung carcinoma i.m., survival
Test: NCI In Vivo Anticancer Drug Screen. Data for tumor model Madison 109 Lung Carcinoma (intramuscular) in BALB/CM mice
Details: endpoint: median survival time, schedule: Q01DX009 (ip), higher = longer survival
Method: The antitumor activity of compounds was measured in mice bearing transplantable tumors. Survival or tumor size were measured and the results are expressed as the measurement made in the treated group (T) divided by the measurement made in the vehicle treated control group (C). The tumor model used in this assay is Madison 109 Lung Carcinoma (intramuscular) in BALB/CM mice

[1] = dose: 0.25 mg/kg/injection, vehicle: saline
[2] = dose: 0.5 mg/kg/injection, vehicle: saline
[3] = dose: 1.0 mg/kg/injection, vehicle: saline
[4] = dose: 0.12 mg/kg/injection, vehicle: saline
[5] = dose: 8.0 mg/kg/injection, vehicle: saline with Tween-80
[6] = dose: 16.0 mg/kg/injection, vehicle: saline with Tween-80
[7] = dose: 32.0 mg/kg/injection, vehicle: saline with Tween-80
[8] = dose: 64.0 mg/kg/injection, vehicle: saline with Tween-80
[9] = dose: 2.0 mg/kg/injection, vehicle: saline
[10] = dose: 4.0 mg/kg/injection, vehicle: saline
[11] = dose: 8.0 mg/kg/injection, vehicle: saline
[12] = dose: 16.0 mg/kg/injection, vehicle: saline
[13] = dose: 32.0 mg/kg/injection, vehicle: saline
[14] = dose: 64.0 mg/kg/injection, vehicle: saline
[15] = dose: 4.0 mg/kg/injection, vehicle: saline with Tween-80
[16] = dose: 50.0 mg/kg/injection, vehicle: saline with Tween-80
[17] = dose: 100.0 mg/kg/injection, vehicle: saline with Tween-80
[18] = dose: 200.0 mg/kg/injection, vehicle: saline with Tween-80
[19] = dose: 400.0 mg/kg/injection, vehicle: saline with Tween-80
[20] = dose: 25.0 mg/kg/injection, vehicle: saline with Tween-80
[21] = dose: 5.0 mg/kg/injection, vehicle: saline with Tween-80
[22] = dose: 10.0 mg/kg/injection, vehicle: saline with Tween-80
[23] = dose: 20.0 mg/kg/injection, vehicle: saline with Tween-80
[24] = dose: 40.0 mg/kg/injection, vehicle: saline with Tween-80
[25] = dose: 80.0 mg/kg/injection, vehicle: saline with Tween-80
[26] = dose: 128.0 mg/kg/injection, vehicle: saline with Tween-80
[27] = dose: 256.0 mg/kg/injection, vehicle: saline with Tween-80
[28] = dose: 512.0 mg/kg/injection, vehicle: saline with Tween-80

Measured: T/C

COc1cc2c(c(OC)c1OC)-c1ccc(OC)c(=O)cc1[C@@H](NC(C)=O)CC2
inactive: dose: 0.13 mg/kg/injection, vehicle: saline 104 % of control | [1] 104 % of control | [2] 108 % of control | [3] 104 % of control

O=C1C2(Cl)C3(Cl)C4(Cl)C(Cl)(Cl)C5(Cl)[C@]3(Cl)C1(Cl)[C@]5(Cl)C24Cl (stereo partly specified)
inactive: dose: 3.12 mg/kg/injection, vehicle: saline with Tween-80 112 % of control | dose: 6.25 mg/kg/injection, vehicle: saline with Tween-80 118 % of control | dose: 12.5 mg/kg/injection, vehicle: saline with Tween-80 121 % of control

O=C1c2c(O)ccc(O)c2C(=O)c2c(NCCNCCO)ccc(NCCNCCO)c21
inactive: [4] 108 % of control | [1] 117 % of control | [2] 123 % of control | [3] 123 % of control

O=S(=O)(O)O
inactive: [5] 109 % of control | [6] 108 % of control | [7] 111 % of control | [8] 112 % of control

CC1=C(/C=C/C(C)=C/C=C/C(C)=C/CO)C(C)(C)CCC1
inactive: [9] 100 % of control | [10] 100 % of control | [11] 115 % of control | [12] 100 % of control | [13] 98 % of control | [14] 111 % of control

O=C1c2ccccc2C(=O)c2c(NCCNCCO)ccc(NCCNCCO)c21
inactive: [2] 116 % of control | [3] 119 % of control | [9] 102 % of control and 117 % of control | [15] 107 % of control and 115 % of control | [10] 117 % of control and 121 % of control | [5] 100 % of control and 118 % of control | [11] 113 % of control and 119 % of control | [12] 111 % of control

CCOC(=O)C(C)(C)Oc1ccc(Cl)cc1
inactive: [16] 112 % of control | [17] 109 % of control | [18] 116 % of control | [19] 109 % of control

O=C(O)CCCc1ccc(N(CCCl)CCCl)cc1
inactive: dose: 1.5 mg/kg/injection, vehicle: saline with Tween-80 103 % of control | dose: 3.0 mg/kg/injection, vehicle: saline with Tween-80 101 % of control | dose: 6.0 mg/kg/injection, vehicle: saline with Tween-80 88 % of control

COc1ccc(C[C@H](N)C(=O)NC2C(CO)OC(n3cnc4c(N(C)C)ncnc43)C2O)cc1 (stereo partly specified)
inactive: [5] 101 % of control | [6] 104 % of control | [7] 104 % of control | [8] 121 % of control

NC(C/[N+]([O-])=N/O)C(=O)O (stereo unspecified)
inactive: [9] 96 % of control | [10] 116 % of control | [11] 93 % of control | [12] 118 % of control | [13] 99 % of control

Nc1n[nH]c(N)n1
inactive: [17] 93 % of control | [18] 101 % of control | [19] 104 % of control | dose: 800.0 mg/kg/injection, vehicle: saline with Tween-80 110 % of control | dose: 1600.0 mg/kg/injection, vehicle: saline with Tween-80 108 % of control

O=c1ccc2ccccc2o1
inactive: [20] 118 % of control | [16] 105 % of control and 111 % of control | [17] 100 % of control and 111 % of control | [18] 113 % of control

COC1=C(N)C(=O)c2nc(-c3nc(C(=O)O)c(C)c(-c4ccc(OC)c(OC)c4O)c3N)ccc2C1=O
inactive: dose: 0.01 mg/kg/injection, vehicle: saline with Tween-80 95 % of control | dose: 0.02 mg/kg/injection, vehicle: saline with Tween-80 95 % of control | dose: 0.04 mg/kg/injection, vehicle: saline with Tween-80 92 % of control | dose: 0.16 mg/kg/injection, vehicle: saline with Tween-80 93 % of control

Nc1ncnc2nc[nH]c12
inactive: dose: 2.0 mg/kg/injection, vehicle: saline with Tween-80 120 % of control | [15] 119 % of control | [5] 101 % of control and 108 % of control | [6] 90 % of control and 117 % of control and 120 % of control

C[C@]12C=CC(=O)C=C1CC[C@@H]1[C@@H]2C(=O)C[C@@]2(C)[C@H]1CC[C@]2(O)C(=O)CO
inactive: [21] 95 % of control | [22] 98 % of control | [23] 97 % of control | [24] 92 % of control | [25] 92 % of control

O=[N+]([O-])c1ccc([N+](=O)[O-])c(Cl)c1
inactive: dose: 2.5 mg/kg/injection, vehicle: saline with Tween-80 101 % of control | [21] 97 % of control | [22] 99 % of control

O=c1ccn(C2OC(CO)C(O)C2O)c(=O)[nH]1 (stereo unspecified)
inactive: [13] 111 % of control | [14] 99 % of control | dose: 128.0 mg/kg/injection, vehicle: saline 93 % of control | dose: 256.0 mg/kg/injection, vehicle: saline 104 % of control | dose: 512.0 mg/kg/injection, vehicle: saline 98 % of control

O=c1cc[nH]c(=O)[nH]1
inactive: [7] 95 % of control and 110 % of control | [8] 96 % of control and 110 % of control | [26] 102 % of control and 105 % of control | [27] 100 % of control and 110 % of control | [28] 94 % of control and 107 % of control

COc1cccc2c1C(=O)c1c(O)c3c(c(O)c1C2=O)CC(O)(C(=O)CO)CC3OC1CC(N)C(O)C(C)O1 (stereo unspecified)
inactive: [22] 100 % of control | [23] 108 % of control

CC(=O)c1cccc(NC2C(N)C(NC(=O)N(C)C)(C(C)O)C(C)(O)C2(O)COC(=O)c2c(C)cccc2O)c1 (stereo unspecified)
inactive: dose: 0.3 mg/kg/injection, vehicle: saline 98 % of control | dose: 0.6 mg/kg/injection, vehicle: saline 100 % of control | dose: 1.2 mg/kg/injection, vehicle: saline 103 % of control

Nc1ccnc(=O)[nH]1
inactive: [7] 111 % of control and 115 % of control | [8] 98 % of control and 105 % of control | [26] 104 % of control and 105 % of control | [27] 93 % of control and 105 % of control | [28] 115 % of control and 117 % of control

CN(C)/N=N/c1nc[nH]c1C(N)=O
inactive: [20] 124 % of control | [16] 119 % of control | [17] 108 % of control

Cc1c2oc3c(C)ccc(C(=O)NC4C(=O)NC(C(C)C)C(=O)N5CCCC5C(=O)N(C)CC(=O)N(C)C(C(C)C)C(=O)OC4C)c3nc-2c(C(=O)NC2C(=O)NC(C(C)C)C(=O)N3CCCC3C(=O)N(C)CC(=O)N(C)C(C(C)C)C(=O)OC2C)c(N)c1=O (stereo unspecified) (I: TVP[Sar][NMeV] / II: TVP[Sar][NMeV]; ester I:1-I:C, II:1-II:C; linker I:N-II:N via Actinocin(9to1); configuration not given here)
inactive: dose: 0.03 mg/kg/injection, vehicle: saline 101 % of control | dose: 0.06 mg/kg/injection, vehicle: saline 107 % of control | [4] 101 % of control | [1] 119 % of control

CNc1nc(N(C)C)nc(N(C)C)n1
inactive: dose: 25.0 mg/kg/injection, vehicle: saline 100 % of control | dose: 50.0 mg/kg/injection, vehicle: saline 100 % of control

Cc1c[nH]c(=O)[nH]c1=O
inactive: [7] 115 % of control and 118 % of control | [8] 97 % of control and 112 % of control | [26] 86 % of control and 115 % of control | [27] 106 % of control and 118 % of control | [28] 101 % of control and 102 % of control

O=[N+]([O-])c1cccc([N+](=O)[O-])c1Cl
inactive: [21] 101 % of control and 120 % of control | [22] 87 % of control and 99 % of control | [23] 120 % of control [middle of 4 runs] | [24] 114 % of control and 96 % of control and 120 % of control | [25] 90 % of control and 93 % of control and 121 % of control | dose: 160.0 mg/kg/injection, vehicle: saline with Tween-80 104 % of control and 99 % of control and 119 % of control | dose: 320.0 mg/kg/injection, vehicle: saline with Tween-80 87 % of control
